From US5194605A, “Cyclic renin inhibitors containing 2-substituted (3S,4S)-4-amino-5-cyclohexyl-3-hydroxy pentanoic acid, 2-substituted (3S,4S)-5-cyclohexyl-3,4-di-hydroxy pentanoic acid or 2-substituted (4S,5S)-5-amino-6-cyclohexyl-4-hydroxyhexanoic acid or its analogs” (Merck & Co., Inc., priority 1991, dated 1993)
Where two headings read alike, the source gives them in different places. Square brackets hold non-standard residues; d marks the D form. Peptide text beside a SMILES is read from it. * marks the point of attachment. Sta = CC(C)C[C@H](N)[C@@H](O)CC(=O)O; Isovaleryl = CC(C)CC(=O)*

Legend:
[1] = amide bond, DPPA, Et3N, DMF, 1.75 mM, 4.0 °C
[2] = system: conscious sodium-deficient Rhesus monkeys; experiment: intravenous evaluation of renin inhibitors in conscious sodium-deficient Rhesus monkeys (blood pressure lowering); assay type: in vivo, Rhesus monkey; conditions: i.v. bolus, mean arterial pressure
Text: The following methods were used for in vivo evaluation of the renin inhibitors of Formula I: Intravenous evaluation of renin inhibitors in concious sodium-deficient Rhesus monkeys: Rhesus monkeys, male and female, weighing 2.6-4.5 Kg, were surgically prepared with chronic arterial and venous catheters and vascular access ports for direct monitoring of mean arterial pressure (MAP) and heart rate (HR). The animals were maintained on a low sodium diet (1.2 mmol Na/day) plus friut for a week, and administered LASIX (furosemide) at 2.5 mg/Kg, intramuscularly the evening prior to the experiment. […] The inhibitors were administered by bolus injection using 0.5% acetic acid-5% dextrose in water as the vehicle (0.4 ml/Kg), and MAP and HR were measured. […] PRA was determined as described above. […] A projected ED50 dose for each inhibitor was calculated using the following furmula: ED50 (Test Inhibitor, umoles/Kg)=ED50 (SCRIP)×[IC50 (Test Inhibitor)/IC50 (SCRIP)], where the IC50 values were determined against human plasma renin. […] Percent inhibition of monkey PRA, changes in MAP and HR were calculated and plotted against time. […] The inhibitors were administered orally as a solution (2.5 ml/Kg) in 0.1M citric acid, and MAP and HR were measured over time. […] Percent inhibition of primate PRA and peak changes in MAP and HR were calculated. […]

CC[C@H](C)CNC(=O)[C@H]1CCCCNC(=O)CC[C@H](NC(=O)OC(C)(C)C)C(=O)N[C@@H](CC2CCCCC2)[C@H]1O gave a ring closure, yield of all isomers ([1]; from CC[C@H](C)CNC(=O)[C@@H](CCCCN)[C@H](O)[C@H](CC1CCCCC1)NC(=O)[C@H](CCC(=O)O)NC(=O)OC(C)(C)C, 120.3 h, 2 steps) of 62%.
CC[C@H](C)CNC(=O)[C@H]1CCCNC(=O)CC[C@H](NC(=O)OC(C)(C)C)C(=O)N[C@@H](CC2CCCCC2)[C@H]1O gave a ring closure, yield of all isomers ([1]; from CC[C@H](C)CNC(=O)[C@@H](CCCN)[C@H](O)[C@H](CC1CCCCC1)NC(=O)[C@H](CCC(=O)O)NC(=O)OC(C)(C)C, 145.0 h) of 18%.
In the case of COC(=O)[C@H]1CCCCNC(=O)CC[C@H](NC(=O)OC(C)(C)C)C(=O)N[C@@H](CC2CCCCC2)[C@H]1O, the ring closure, yield of all isomers ([1]; from COC(=O)[C@@H](CCCCN)[C@H](O)[C@H](CC1CCCCC1)NC(=O)[C@H](CCC(=O)O)NC(=O)OC(C)(C)C, 120.3 h) is reported as 62%.
For CC(C)CC(=O)N[C@@H](Cc1cnc[nH]1)C(=O)N1CCC[C@H]1C(=O)N[C@@H](Cc1ccccc1)C(=O)N[C@@H](Cc1cnc[nH]1)C(=O)N[C@@H](CC(C)C)[C@@H](O)CC(=O)N[C@@H](CC(C)C)C(=O)N[C@@H](Cc1ccccc1)C(N)=O [SCRIP, Iva-His-Pro-Phe-His-Sta-Leu-Phe-NH2] (Isovaleryl-HPFH[Sta]LF-NH2), the “ED50 (i.v. dose required to lower blood pressure by 50% of the maximal response)” value [2] was 0.039 µmol/kg.
